Assay results taken from paper PMC10348910, “Epigenetic reprogramming of cell cycle genes by ACK1 promotes breast cancer resistance to CDK4/6 inhibitor” (Oncogene, 2023).

How the values were obtained:
[1] = system: cytochrome P450 (CYP) isoenzymes; assay type: in vitro ADME; conditions: human liver microsomes; CYP1A1/2, CYP2C9, CYP2C19, CYP2D6 and CYP3A4
[2] = system: MCF7, SKBR3, HCC-1395 and MDA-MB-453; experiment: apoptosis assay, Annexin V-FITC/PI flow cytometry; assay type: cell-based; conditions: 0.25, 0.5, 1 µM
Description: For proliferation assay, 5 × 10^4 cells were plated in 6-well plate and treated with either vehicle (DMSO) or varying concentrations of (R)-9b or palbociclib in complete media for 96 h and number of viable cells were counted by trypan blue exclusion assay. Breast cancer cell lines were treated with vehicle or varying concentrations of (R)-9b for 72 h. The cells were harvested, washed 2 times with PBS and incubated with 3 ul of Annexin V-FITC antibody according to the manufacturers protocol (BD Biosciences). Five µl Propidium iodide was used to stain necrotic cells. The cells were acquired using the BD FACSCalibur machine (BD Biosciences) and data was analyzed using FlowJo software. Cell cycle analysis was performed as mentioned earlier. Briefly, vehicle or (R)-9b (48 h) treated cells were harvested by trypsinization, washed 2 times with PBS, and fixed using chilled 70% Ethanol for 1 h, followed by 2 washes with PBS. […] The data were analyzed using FlowJo software. […]
(A) MCF7, SKBR3, HCC-1395 and MDA-MB-453 cells were treated with 0.25µM, 0.5µM and 1 µM (R)-9b for 96h. […] Quantification of the live, early apoptotic, late apoptotic and necrotic cells is represented using stacked columns. […]

[3] = system: CCNB1, CCNB2 and CDC20 mRNA; experiment: qRT-PCR of CCNB1, CCNB2 and CDC20 in breast cancer cells; assay type: cell-based; conditions: MCF7, MDA-MB-453, SKBR3 and HCC-1395 cells; overnight
Description: Fig. 2 ACK1 regulates breast cancer transcriptome, affecting genes implicated in cell cycle progression. A Chemical structure of (R)-9b. B Breast cancer cell lines were treated with either vehicle or (R)-9b overnight and cell lysates were subjected to immunoprecipitation using ACK1 antibody, followed by immunoblotting with pY284-ACK1 antibody. Lysates were also subjected to immunoblotting with total ACK1 and Actin antibodies, shown in the lower panels. […] C Breast cancer cell lines were treated with varying concentrations of (R)-9b for 96 h and the cell proliferation was measured using Trypan Blue exclusion method. D–H RNA from breast cancer cells treated with vehicle or varying concentrations of (R)-9b overnight, and were subjected to qRT-PCR using CCNB1, CCNB2 and CDC20 primers. Actin or 18S rRNA was used as housekeeping control. For (B), representative images of three independent experiments are shown. For (C), a four parameter, variable slope, non-linear regression curve was computed, representing three independent experiments. […]
(§1) Real-time quantitative PCR analyses were performed using the ABI PRISM 7900HT Sequence Detection System (Applied Biosystems) as described earlier. […] Data were analyzed using SDS software version 2.2.2 and exported into an Excel spreadsheet. […]

CXCR4 mRNA = experiment: qRT-PCR of CXCR4 in MDA-MB-231 cells; assay type: cell-based
Description: Fig. 7 ACK1 inhibitor overcomes palbociclib-resistant breast cancer growth and metastasis. A 3 × 10^6 MDA-MB-468 cells were injected in the 4th inguinal mammary fat pad of female SCID mice. Once the tumors were palpable, the mice were treated with either vehicle (Captisol; n = 7), Palbociclib at 80 mg/kg (n = 6), or (R)-9b at 36 mg/Kg (n = 6) orally. In addition, mice were injected with (R)-9b at 24 mg/Kg (n = 7) subcutaneously. Mice were treated five times a week, for 22 days. B, C The tumors were harvested and photographed, and the weights were recorded. D Vehicle or (R)-9b treated breast cancer cells were subjected to ChIP using pY88-H4 antibody, followed by qPCR for CXCR4 gene. E CXCR4 mRNA transcript levels in vehicle or (R)-9b treated MDA-MB-231 cells. 18S rRNA was used as housekeeping gene. F MDA-MB-231 cells were transfected with ACK1 or scrambled siRNA, followed by qRT-PCR to determine CXCR4 mRNA transcript levels. […] H Graphical quantitation of lung metastatic deposit. […] The metastases were assessed using IVIS. […] For (A, C–F, I), p values were calculated using unpaired two-tailed Student’s t test.
as §1

CDK1, CDK2 and WEE1 mRNA = experiment: qRT-PCR of CDK1, CDK2 and WEE1; assay type: cell-based; conditions: MCF-7 and MDA-MB-453; overnight
Description: Real-time quantitative PCR analyses were performed using the ABI PRISM 7900HT Sequence Detection System (Applied Biosystems) as described earlier. Briefly, the PCR was carried out with SYBR Green PCR Master Mix (Applied Biosystems) using 2 µl of cDNA (or ChIP DNA) and the primers in a 20 µl final reaction mixture. Dissociation curves were generated for each plate to verify the integrity of the primers. Data were analyzed using SDS software version 2.2.2 and exported into an Excel spreadsheet. The 18S or Actin data were used for normalizing the gene values. The sequences for the primers are in Supplementary Table 12.
Supplementary Figure S9: Effect of ACK1 inhibition on CDKs and WEE1.
RNA from breast cancer cells treated with vehicle or varying concentrations of (R)-9b overnight were subjected to qRT-PCR using CDK1, CDK2 and WEE1 primers. 18S rRNA was used as housekeeping control. Data are represented as the mean ± SEM from 2 biologically independent experiments. *p<0.05, **p<0.01, ***p<0.001, unpaired two-tailed Student’s t-test.

[4] = plasma protein binding in human plasma

CN1CCN(c2ccc(Nc3ncc(Cl)c(NC[C@H]4CCCO4)n3)cc2)CC1 [(R)-9b]
potential to inhibit cytochrome P450 (CYP) isoenzymes [1]: low potential to inhibit
number of cells undergoing apoptosis [2]: marked increase
CCNB1, CCNB2 and CDC20 mRNA transcripts [3]: significant downregulation
CXCR4 transcription (CXCR4 mRNA): inhibited CXCR4 transcription
CDK1 and 2, and WEE1 expression (CDK1, CDK2 and WEE1 mRNA): affected
remaining after 6 h of treatment ([4]; 6 h): over 96%
fraction unbound ([4]; human, plasma, Plasma Protein Binding (PPB)): 0.17
